The test relates to Streptococcus mutans. The test can be described thus: Antibacterial activity against Streptococcus mutans ATCC 25175 after 16 to 20 hrs by NCCLS method. Type of test: functional.
`COc1cc2occ(-c3ccc(O)cc3)c(=O)c2c(O)c1CC=C(C)C` [GANCAONIN G] gave an Activity of 125 µg/mL.

The molecule `COc1c(CC=C(C)C)c(O)cc2c1-c1oc3cc(O)c(CC=C(C)C)cc3c1CO2` [GLYCYRRHIZOL A] came in with an Activity of 1 µg/mL. The same measure for `CC(C)=CCc1c(O)c(CC=C(C)C)c2occ(-c3ccc(O)cc3)c(=O)c2c1O`: 2 µg/mL; for `COc1cc2oc(=O)c3c4ccc(O)cc4oc3c2c(OC)c1CC=C(C)C`: 500 µg/mL; for `COc1c2c(cc3oc(=O)c4c5ccc(O)cc5oc4c13)OC(C)(C)CC2` [ISOGLYCYROL]: 500 µg/mL. The same measure for `COc1cc(O)cc2c1-c1oc3c4c(ccc3c1CO2)OC(C)(C)C=C4` [GLYCYRRHIZOL B]: 32 µg/mL.

(Values after ChEMBL document CHEMBL1157231, “Antibacterial compounds from Glycyrrhiza uralensis” (2006).)
